# Data: patent publication US20100215618A1, “NOVEL COMPOUNDS - 644” (Arrow Therapeutics Limited, priority 2009, published 2010)
# Where two headings read alike, the source gives them in different places.
# Columns and labels:
# [1] = in vitro; type: in vitro ADME, Canine; conditions: dog, MDCK
# Method: Cells used: MDCK (Madin-Darby Canine Kidney) cells, ATCC collection # CCL-34, are used to model the intestinal barrier. Cell culture conditions: cells were cultured at 37° C. in a 5% CO2 environment and split twice a week on seeding at 4×10^5 cells/flask (75 cm^2) on day 1 and 2×10^5 cells/flask on day 4. The culture medium consisted of MEM+Earle's-L Glutamine (Gibco #21090-022) supplemented with 10% Australian Fetal Calf Serum (Sigma #F6178), 2 mM L-Glutamine (Gibco #25030-024) and 1× Non Essential Amino Acids (Gibco #11140-035)
# On day 1, a 24-well plate (Sarstedt, #83.1836.300) was filled with individual 3 lam pore membrane inserts (Millipore, #PITP 012 50). Each plate allows the testing of a cocktail of 3 control compounds and 11 test compounds in duplicate. The wells (outside the inserts) were filled with 500 μl of culture medium.
# A flask of cells was trypsinised and a cell count carried out. Cells were diluted to 1.2×10^5 cells/ml (1×10^5 cells/cm^2) and 500 μl dispensed in each insert on the 24-well plate. The plate was incubated at 37° C. in a 5% CO2 environment for 48 hours.
# On day 3, the culture medium was removed from the wells, then the inserts and is replaced with fresh culture medium in the wells, then the inserts (500111 per well and insert) The plate was incubated at 37° C. in a 5% CO2 environment for 24 hours.
# On day 4, the controls cocktail and test compounds solutions were made up in HBSS buffer (Hank's Balanced Salt Solution, Gibco #14025-050) at 1011M. The final controls and test compounds concentration in the assay was 10 μM, and DMSO concentration maintained at 0.1% (0.3% for the controls cocktail). The controls cocktail was made up of Atenolol (Sigma # A-7655), Dexamethasone (Sigma #D-1756) and Propranolol (Sigma # P-0884).
# A 24-well plate was filled with 500 μl of HBSS buffer per well (assay plate) The culture medium was removed from the wells and inserts. The inserts were washed three times with approximately 500 μl of HBSS buffer. The inserts were transferred to the assay plate. Controls cocktail and test compounds solutions were dispensed inside the inserts (500 μl per insert), in duplicates. The assay plate was incubated at 37° C. in a 5% CO2 environment for 2 hours.
# After 2 hours, the inserts were removed from the assay plate and transferred into a new 24-well plate (wash plate) The assay plate containing the receiver solutions was left aside for later sampling. To measure the mass balance, 150 μl were sampled from each insert (donor solutions) and dispensed into 150 μl of HPLC-grade Acetonitrile (Fisher Scientific) containing an internal standard and 0.05% formic acid.
# The donor solutions were aspirated and discarded from each insert, and the inserts washed once with approximately 500 μl of HBSS buffer. A 24-well plate was filled with 500 μl of HBSS buffer per well (monolayer integrity plate) A Lucifer Yellow (Sigma #L0144) solution was made up at 1001.1M in HBSS buffer. The empty inserts were transferred into the monolayer integrity plate and filled with 500 μl of the Lucifer Yellow solution to determine the cell monolayers integrity and leftover of the solution was kept in a fridge. The plate was incubated at 37° C. in a 5% CO2 environment for 2 hours.
# In the meantime, 150 μl were sampled from the assay plate (receiver solutions) and dispensed into 150 μl of HPLC-grade Acetonitrile containing an internal standard and 0.05% formic acid. A calibration curve was made for each mix of compounds (as appropriate depending on compounds molecular weights) A 10 μM mix of compounds in HBSS buffer was diluted 1:1 in HPLC-grade Acetonitrile containing an internal standard and 0.05% formic acid. A 1:1 mix of HBSS buffer and HPLC-grade Acetonitrile containing an internal standard and 0.05% formic acid was made up and used to make up the calibration curve (2 fold dilutions), with concentrations ranging from 10 μM to 0.078 μM. […]
# [2] = test system: HCV replicon cells Huh 9B (genotype 1b); assay: 1b Replicon Assay (luciferase readout); type: cell-based; conditions: Hepatitis C virus, Huh 9B replicon cells, 72 h, luciferase activity
# [3] = test system: HCV genotype 1a replicon cells Htat2ANeo; assay: 1a Replicon Assay (cell-based anti-NS5a ELISA); conditions: Hepatitis C virus, 72 h
# Outline: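 HCV 1a Htat2ANeo replicon cells (Et2AN control cells) exposed to compound for 72 h at 37° C without G418/blasticidin. NS5a quantified by cell-based ELISA (anti-NS5a, HRP/OPD, A490); IC50 from percentage reduction versus untreated control. Cytotoxicity TD50 by Cell Titre Blue fluorescence (ex 570/em 590 nm) versus DMSO controls.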
# [4] = test system: HCV replicon cells Huh 9B; type: cell-based; conditions: Huh 9B replicon cells, 72 h, methylene blue, total cell area reduced by 50%
# Method: HCV replicon cells Huh 9B (ReBlikon), containing the firefly luciferase-ubiquitin-neomycin phosphotransferase fusion protein and EMCV-IRES driven HCV polyprotein with cell culture adaptive mutations.
# Replicon cells were trypsinised and counted. Cells were diluted to 100,000 cells/ml and 100 μl used to seed one opaque white 96-well plate (for the replicon assay) and one flat-bottomed clear plate (for the tox assay) for every five compounds to be tested for IC50. Wells G12 and H12 were left empty in the clear plate as the blank. Plates were then incubated at 37° C./5% CO2 for 24 h.
# On the following day compound dilutions were prepared in medium at twice their desired final concentration in a clear round bottomed plate. All dilutions have a final DMSO concentration of 1%.
# Controls and compounds were transferred from the dilution plates to the assay plates (containing the cells) at 100 μl/well in duplicate wells.
# Exception: no compound was added to wells A1 and A2 of either plate and 100 μl of 1% DMSO was added to these instead. Plates were then incubated at 37° C./5% CO2 for 72 h.
# The clear plate was stained with 100 μA 0.5% methylene blue in 50% ethanol at room temperature for 1 h, followed by solvation of the absorbed methylene blue in 100 μl per well of 1% lauroylsarcosine. Absorbance of the plate was measured on a microplate spectrophotometer (Molecular Devices) and the absorbance for each concentration of compound expressed as a proportion of the relative DMSO control. The TD50, the is concentration of drug required to reduce the total cell area by 50% relative to the DMSO controls, was calculated by plotting the absorbance at 620 nm after background substraction against drug concentration.
# [5] = read-out: pIC50 1b Replicon (converted)
# [6] = read-out: pIC50 1a Replicon (converted)
SMILES,"Papp at 2 h, 10 µM [1]",IC50 ([2]; read-out: HCV IC50 1b Replicon),"IC50 [2, 5]",IC50 ([3]; read-out: HCV IC50 Elisa 1a),"IC50 [3, 6]",HCV TD50 Replicon [4]
"COC(=O)N[C@@H](C)C(=O)N1CCC[C@@H]1c1ncc(-c2ccc(-c3ccc(C(=O)Nc4ccc(CN5CCS(=O)(=O)CC5)cc4)cc3)cc2)[nH]1 [Example 21, Methyl N-[(1S)-2-[(2R)-2-[5-[4-[4-[[4-[(1,1-dioxo-1,4-thiazinan-4-yl)methyl]phenyl]carbamoyl]phenyl]phenyl]-1H-imidazol-2-yl]pyrrolidin-1-yl]-1-methyl-2-oxo-ethyl]carbamate]",1.4 ×10⁻⁶ cm/s,418 nM,417 nM,–,–,–
"COC(=O)N[C@H](C(=O)N1CCC[C@@H]1c1ncc(-c2ccc(-c3ccc(C(=O)Nc4ccc(CN5CCS(=O)(=O)CC5)cc4)cc3)cc2)[nH]1)C(C)(C)C [Example 22, Methyl N-[(1S)-1-[(2R)-2-[5-[4-[4-[[4-[(1,1-dioxo-1,4-thiazinan-4-yl)methyl]phenyl]carbamoyl]phenyl]phenyl]-1H-imidazol-2-yl]pyrrolidine-1-carbonyl]-2,2-dimethyl-propyl]carbamate]",0.55 ×10⁻⁶ cm/s,266 nM,263 nM,–,–,–
"COC(=O)N[C@H](C(=O)N1CCC[C@H]1c1ncc(-c2ccc(-c3cccc(C(=O)Nc4ccc(CN5CCS(=O)(=O)CC5)cc4)c3)cc2)[nH]1)C(C)C [Example 28, Methyl N-[(1S)-1-[(2S)-2-[5-[4-[3-[[4-[(1,1-dioxo-1,4-thiazinan-4-yl)methyl]phenyl]carbamoyl]phenyl]phenyl]-1H-imidazol-2-yl]pyrrolidine-1-carbonyl]-2-methyl-propyl]carbamate]",–,7.32 nM,7.24 nM,2080 nM,2090 nM,>25 µM
"COC(=O)N[C@@H](C)C(=O)N1CCC[C@H]1c1ncc(-c2ccc(-c3cccc(C(=O)Nc4ccc(CN5CCS(=O)(=O)CC5)cc4)c3)cc2)[nH]1 [Example 29, Methyl N-[(1S)-2-[(2S)-2-[5-[4-[3-[[4-[(1,1-dioxo-1,4-thiazinan-4-yl)methyl]phenyl]carbamoyl]phenyl]phenyl]-1H-imidazol-2-yl]pyrrolidin-1-yl]-1-methyl-2-oxo-ethyl]carbamate]",–,33.4 nM,33.1 nM,7620 nM,7590 nM,>25 µM
"COC(=O)N[C@H](C(=O)N1CCC[C@H]1c1ncc(-c2ccc(-c3cccc(C(=O)Nc4ccc(CN5CCS(=O)(=O)CC5)cc4)c3)cc2)[nH]1)c1ccccc1 [Example 30, Methyl N-[(1S)-2-[(2S)-2-[5-[4-[3-[[4-[(1,1-dioxo-1,4-thiazinan-4-yl)methyl]phenyl]carbamoyl]phenyl]phenyl]-1H-imidazol-2-yl]pyrrolidin-1-yl]-2-oxo-1-phenyl-ethyl]carbamate]",–,1.2 nM,1.2 nM,2480 nM,2450 nM,>25 µM
"COC(=O)N[C@@H](C(=O)N1CCC[C@H]1c1ncc(-c2ccc(-c3cccc(C(=O)Nc4ccc(CN5CCS(=O)(=O)CC5)cc4)c3)cc2)[nH]1)c1ccccc1 [Example 31, Methyl N-[(1R)-2-[(2S)-2-[5-[4-[3-[[4-[(1,1-dioxo-1,4-thiazinan-4-yl)methyl]phenyl]carbamoyl]phenyl]phenyl]-1H-imidazol-2-yl]pyrrolidin-1-yl]-2-oxo-1-phenyl-ethyl]carbamate]",–,0.91 nM,0.912 nM,2700 nM,2690 nM,>25 µM
"CCN(CC)[C@@H](C(=O)N1CCC[C@H]1c1ncc(-c2ccc(-c3cccc(C(=O)Nc4ccc(CN5CCS(=O)(=O)CC5)cc4)c3)cc2)[nH]1)c1ccccc1 [Example 32, 3-[4-[2-[(2S)-1-[(2R)-2-(diethylamino)-2-phenyl-acetyl]pyrrolidin-2-yl]-1H-imidazol-5-yl]phenyl]-N-[4-[(1,1-dioxo-1,4-thiazinan-4-yl)methyl]phenyl]benzamide]",–,0.21 nM,0.209 nM,1150 nM,1150 nM,>25 µM
"COC(=O)N[C@H](C(=O)N1CCOC[C@H]1c1ncc(-c2ccc(-c3ccc(C(=O)Nc4ccc(CN5CCS(=O)(=O)CC5)cc4)cc3)cc2)[nH]1)C(C)C [Example 46, Methyl N-[(1S)-1-[(3R)-3-[5-[4-[4-[[4-[(1,1-dioxo-1,4-thiazinan-4-yl)methyl]phenyl]carbamoyl]phenyl]phenyl]-1H-imidazol-2-yl]morpholine-4-carbonyl]-2-methyl-propyl]carbamate]",–,0.71 nM,0.708 nM,19.4 nM,19.5 nM,>25 µM
"CC(C)(C)OC(=O)N[C@H](C(=O)N1CCOC[C@H]1c1ncc(-c2ccc(-c3ccc(C(=O)Nc4ccc(CN5CCS(=O)(=O)CC5)cc4)cc3)cc2)[nH]1)c1ccccc1 [Example 48, tert-Butyl N-[(1S)-2-[(3R)-3-[5-[4-[4-[[4-[(1,1-dioxo-1,4-thiazinan-4-yl)methyl]phenyl]carbamoyl]phenyl]phenyl]-1H-imidazol-2-yl]morpholin-4-yl]-2-oxo-1-phenyl-ethyl]carbamate]",–,0.51 nM,0.513 nM,52.6 nM,52.5 nM,>25 µM
"CN(C)[C@@H](C(=O)N1CCOC[C@H]1c1ncc(-c2ccc(-c3ccc(C(=O)Nc4ccc(CN5CCS(=O)(=O)CC5)cc4)cc3)cc2)[nH]1)c1ccccc1 [Example 49, 4-[4-[2-[(3R)-4-[(2R)-2-(dimethylamino)-2-phenyl-acetyl]morpholin-3-yl]-1H-imidazol-5-yl]phenyl]-N-[4-[(1,1-dioxo-1,4-thiazinan-4-yl)methyl]phenyl]benzamide]",–,0.88 nM,0.891 nM,77.8 nM,77.6 nM,19.7 µM
